# Paper PMC5341070, “Small molecule inhibitors block Gas6-inducible TAM activation and tumorigenicity” (Scientific Reports, 2017)
# Legend:
# Assay in all cases: biochemical
# Set-up in all cases: KINOMEscan (DiscoverX) competition binding screen of 97 human kinases, percent of control at 10 uM
# [1] = molecular target: AKT1 (Homo sapiens, UniProt P31749)
# Procedure: (§1) The KINOMEscan profiling of the inhibitors were performed as per directions by the manufacturer (DiscoverX) against a panel of human protein kinases.
# [2] = molecular target: AURKA (Homo sapiens, UniProt O14965)
# AURKA, sequence (O14965 whole entry): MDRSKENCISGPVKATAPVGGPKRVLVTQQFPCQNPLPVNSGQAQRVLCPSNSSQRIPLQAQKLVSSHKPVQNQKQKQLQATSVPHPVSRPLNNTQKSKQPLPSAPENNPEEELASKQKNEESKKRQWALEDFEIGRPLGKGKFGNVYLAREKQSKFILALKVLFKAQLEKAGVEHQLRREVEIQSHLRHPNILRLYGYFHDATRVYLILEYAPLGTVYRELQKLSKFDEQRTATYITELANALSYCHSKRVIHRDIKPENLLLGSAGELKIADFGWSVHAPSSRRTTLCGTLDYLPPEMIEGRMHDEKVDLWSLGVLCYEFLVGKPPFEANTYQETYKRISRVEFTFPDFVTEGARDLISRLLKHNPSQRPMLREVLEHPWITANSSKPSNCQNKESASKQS
# Procedure: as §1
# [3] = molecular target: ALK (Homo sapiens, UniProt Q9UM73)
# Procedure: as §1
# [4] = molecular target: PDGFRA (Homo sapiens, UniProt P16234)
# Procedure: as §1
# [5] = molecular target: CHEK1 (Homo sapiens, UniProt O14757)
# Procedure: as §1
# [6] = molecular target: MET (Homo sapiens, UniProt P08581)
# Procedure: as §1
# [7] = molecular target: MAPKAPK2 (Homo sapiens, UniProt P49137)
# Procedure: as §1
# [8] = molecular target: T1, IKK-alpha (Homo sapiens, UniProt O15111)
# T1 construct: gene CHUK
# T1 sequence (O15111 whole entry): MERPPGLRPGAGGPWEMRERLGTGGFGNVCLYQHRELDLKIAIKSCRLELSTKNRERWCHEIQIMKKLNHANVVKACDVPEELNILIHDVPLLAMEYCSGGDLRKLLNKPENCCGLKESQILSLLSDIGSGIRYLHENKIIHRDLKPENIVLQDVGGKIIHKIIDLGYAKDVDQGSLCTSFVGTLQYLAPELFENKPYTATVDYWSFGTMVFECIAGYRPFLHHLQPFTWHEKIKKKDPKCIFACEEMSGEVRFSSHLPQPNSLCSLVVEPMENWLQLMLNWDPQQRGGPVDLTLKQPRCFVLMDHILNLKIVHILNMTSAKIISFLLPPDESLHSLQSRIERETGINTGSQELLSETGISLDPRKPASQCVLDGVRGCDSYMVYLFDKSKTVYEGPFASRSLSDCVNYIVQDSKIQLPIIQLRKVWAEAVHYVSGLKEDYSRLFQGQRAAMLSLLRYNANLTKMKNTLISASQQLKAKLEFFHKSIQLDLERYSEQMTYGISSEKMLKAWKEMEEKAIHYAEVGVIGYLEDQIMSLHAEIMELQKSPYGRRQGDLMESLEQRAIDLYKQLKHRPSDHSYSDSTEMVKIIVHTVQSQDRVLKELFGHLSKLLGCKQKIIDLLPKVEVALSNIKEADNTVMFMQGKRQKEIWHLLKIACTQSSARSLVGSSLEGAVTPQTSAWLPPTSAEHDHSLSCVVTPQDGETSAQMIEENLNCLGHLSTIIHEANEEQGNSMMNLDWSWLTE
# Procedure: as §1
# [9] = molecular target: AKT2 (Homo sapiens, UniProt P31751)
# Procedure: as §1
# [10] = molecular target: MARK3 (Homo sapiens, UniProt P27448)
# Procedure: as §1
# [11] = molecular target: ERBB2 (Homo sapiens, UniProt P04626)
# Procedure: as §1
# [12] = molecular target: T2, YANK3 (Homo sapiens, UniProt Q86UX6)
# T2 construct: gene STK32C
# Procedure: as §1
# [13] = molecular target: CDK2 (Homo sapiens, UniProt P24941)
# Procedure: as §1
# [14] = molecular target: PAK1 (Homo sapiens, UniProt Q13153)
# Procedure: as §1
# [15] = molecular target: T3, RSK2(Kin.Dom.1-N-terminal) (Homo sapiens, UniProt P51812)
# T3 construct: gene RPS6KA3; Kin.Dom.1-N-terminal
# Procedure: as §1
# [16] = molecular target: T4, MEK1 (Homo sapiens, UniProt Q02750)
# T4 construct: gene MAP2K1
# Procedure: as §1
# [17] = molecular target: T5, SNARK (Homo sapiens, UniProt Q9H093)
# T5 construct: gene NUAK2
# T5 sequence (Q9H093 whole entry): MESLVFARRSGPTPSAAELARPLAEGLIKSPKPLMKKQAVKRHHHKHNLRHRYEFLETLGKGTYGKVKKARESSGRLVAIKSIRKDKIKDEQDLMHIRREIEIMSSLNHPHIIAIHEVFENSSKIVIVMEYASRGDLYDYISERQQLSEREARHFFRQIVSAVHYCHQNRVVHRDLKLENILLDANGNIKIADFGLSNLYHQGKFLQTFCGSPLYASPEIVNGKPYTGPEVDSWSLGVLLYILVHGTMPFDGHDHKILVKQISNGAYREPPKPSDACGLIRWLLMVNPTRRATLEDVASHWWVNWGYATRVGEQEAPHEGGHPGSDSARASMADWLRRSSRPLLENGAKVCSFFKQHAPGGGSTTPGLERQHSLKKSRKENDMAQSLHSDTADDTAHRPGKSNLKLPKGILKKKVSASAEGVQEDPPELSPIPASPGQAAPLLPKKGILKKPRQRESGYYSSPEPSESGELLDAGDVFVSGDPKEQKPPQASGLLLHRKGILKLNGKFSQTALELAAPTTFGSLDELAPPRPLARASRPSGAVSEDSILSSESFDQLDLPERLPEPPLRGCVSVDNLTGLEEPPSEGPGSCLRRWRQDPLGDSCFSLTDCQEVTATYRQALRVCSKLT
# Procedure: as §1
# [18] = molecular target: T6, MLK1 (Homo sapiens, UniProt P80192)
# T6 construct: gene MAP3K9
# T6 sequence (P80192 whole entry): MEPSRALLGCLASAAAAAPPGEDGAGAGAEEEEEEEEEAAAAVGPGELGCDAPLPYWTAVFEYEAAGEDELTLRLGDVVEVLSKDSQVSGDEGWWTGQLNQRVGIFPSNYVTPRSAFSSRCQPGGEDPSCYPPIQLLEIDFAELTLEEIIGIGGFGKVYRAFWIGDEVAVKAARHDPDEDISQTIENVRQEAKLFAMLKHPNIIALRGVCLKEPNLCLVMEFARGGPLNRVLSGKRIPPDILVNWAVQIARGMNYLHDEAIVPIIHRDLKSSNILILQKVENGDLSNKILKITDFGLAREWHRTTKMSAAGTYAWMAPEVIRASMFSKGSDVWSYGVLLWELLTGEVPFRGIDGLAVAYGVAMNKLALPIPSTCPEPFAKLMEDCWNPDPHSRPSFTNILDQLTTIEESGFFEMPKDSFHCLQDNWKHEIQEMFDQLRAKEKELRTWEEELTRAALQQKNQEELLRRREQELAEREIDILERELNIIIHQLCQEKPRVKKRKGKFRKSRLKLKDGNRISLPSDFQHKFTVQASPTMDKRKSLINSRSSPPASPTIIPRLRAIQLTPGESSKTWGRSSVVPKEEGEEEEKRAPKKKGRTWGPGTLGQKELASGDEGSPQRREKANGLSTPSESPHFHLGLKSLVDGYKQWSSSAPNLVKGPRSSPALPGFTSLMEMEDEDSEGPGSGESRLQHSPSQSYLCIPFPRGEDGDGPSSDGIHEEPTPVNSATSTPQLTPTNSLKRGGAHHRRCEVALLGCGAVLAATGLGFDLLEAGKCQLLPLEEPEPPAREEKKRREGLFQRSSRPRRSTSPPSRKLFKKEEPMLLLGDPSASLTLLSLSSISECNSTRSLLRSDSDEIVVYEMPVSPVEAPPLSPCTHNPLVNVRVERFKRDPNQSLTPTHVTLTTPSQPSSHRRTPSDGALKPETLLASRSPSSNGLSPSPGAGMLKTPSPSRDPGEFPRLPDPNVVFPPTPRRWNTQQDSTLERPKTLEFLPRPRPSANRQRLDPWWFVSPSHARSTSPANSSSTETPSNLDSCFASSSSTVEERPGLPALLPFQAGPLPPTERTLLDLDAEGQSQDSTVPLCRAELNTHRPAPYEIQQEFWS
# Procedure: as §1
# [19] = molecular target: MKNK1 (Homo sapiens, UniProt Q9BUB5)
# Procedure: as §1
# [20] = molecular target: GSK3B (Homo sapiens, UniProt P49841)
# Procedure: as §1
# [21] = molecular target: FGFR3 (Homo sapiens, UniProt P22607)
# FGFR3, sequence (P22607 whole entry): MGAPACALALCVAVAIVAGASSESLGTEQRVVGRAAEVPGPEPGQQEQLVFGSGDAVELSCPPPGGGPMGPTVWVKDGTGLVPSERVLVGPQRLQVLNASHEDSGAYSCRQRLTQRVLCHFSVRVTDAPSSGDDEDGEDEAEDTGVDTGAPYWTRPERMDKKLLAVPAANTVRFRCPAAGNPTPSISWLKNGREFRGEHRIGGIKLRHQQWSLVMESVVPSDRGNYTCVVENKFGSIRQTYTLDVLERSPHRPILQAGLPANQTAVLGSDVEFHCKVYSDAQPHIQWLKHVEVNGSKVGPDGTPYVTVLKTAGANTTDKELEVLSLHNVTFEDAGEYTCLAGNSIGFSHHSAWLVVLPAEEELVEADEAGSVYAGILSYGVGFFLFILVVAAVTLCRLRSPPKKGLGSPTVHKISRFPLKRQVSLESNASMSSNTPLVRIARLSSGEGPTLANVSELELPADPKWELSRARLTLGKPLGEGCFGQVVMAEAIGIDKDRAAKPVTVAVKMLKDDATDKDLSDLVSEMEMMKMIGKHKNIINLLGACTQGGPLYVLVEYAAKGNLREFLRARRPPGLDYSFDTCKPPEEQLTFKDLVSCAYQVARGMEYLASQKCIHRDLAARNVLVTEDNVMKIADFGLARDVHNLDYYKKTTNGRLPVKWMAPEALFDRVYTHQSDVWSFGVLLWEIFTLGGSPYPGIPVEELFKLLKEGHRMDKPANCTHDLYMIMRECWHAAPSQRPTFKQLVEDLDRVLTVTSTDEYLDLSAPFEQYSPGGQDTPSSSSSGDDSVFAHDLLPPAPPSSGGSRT
# Procedure: as §1
# [22] = molecular target: IGF1R (Homo sapiens, UniProt P08069)
# IGF1R, sequence (P08069 whole entry): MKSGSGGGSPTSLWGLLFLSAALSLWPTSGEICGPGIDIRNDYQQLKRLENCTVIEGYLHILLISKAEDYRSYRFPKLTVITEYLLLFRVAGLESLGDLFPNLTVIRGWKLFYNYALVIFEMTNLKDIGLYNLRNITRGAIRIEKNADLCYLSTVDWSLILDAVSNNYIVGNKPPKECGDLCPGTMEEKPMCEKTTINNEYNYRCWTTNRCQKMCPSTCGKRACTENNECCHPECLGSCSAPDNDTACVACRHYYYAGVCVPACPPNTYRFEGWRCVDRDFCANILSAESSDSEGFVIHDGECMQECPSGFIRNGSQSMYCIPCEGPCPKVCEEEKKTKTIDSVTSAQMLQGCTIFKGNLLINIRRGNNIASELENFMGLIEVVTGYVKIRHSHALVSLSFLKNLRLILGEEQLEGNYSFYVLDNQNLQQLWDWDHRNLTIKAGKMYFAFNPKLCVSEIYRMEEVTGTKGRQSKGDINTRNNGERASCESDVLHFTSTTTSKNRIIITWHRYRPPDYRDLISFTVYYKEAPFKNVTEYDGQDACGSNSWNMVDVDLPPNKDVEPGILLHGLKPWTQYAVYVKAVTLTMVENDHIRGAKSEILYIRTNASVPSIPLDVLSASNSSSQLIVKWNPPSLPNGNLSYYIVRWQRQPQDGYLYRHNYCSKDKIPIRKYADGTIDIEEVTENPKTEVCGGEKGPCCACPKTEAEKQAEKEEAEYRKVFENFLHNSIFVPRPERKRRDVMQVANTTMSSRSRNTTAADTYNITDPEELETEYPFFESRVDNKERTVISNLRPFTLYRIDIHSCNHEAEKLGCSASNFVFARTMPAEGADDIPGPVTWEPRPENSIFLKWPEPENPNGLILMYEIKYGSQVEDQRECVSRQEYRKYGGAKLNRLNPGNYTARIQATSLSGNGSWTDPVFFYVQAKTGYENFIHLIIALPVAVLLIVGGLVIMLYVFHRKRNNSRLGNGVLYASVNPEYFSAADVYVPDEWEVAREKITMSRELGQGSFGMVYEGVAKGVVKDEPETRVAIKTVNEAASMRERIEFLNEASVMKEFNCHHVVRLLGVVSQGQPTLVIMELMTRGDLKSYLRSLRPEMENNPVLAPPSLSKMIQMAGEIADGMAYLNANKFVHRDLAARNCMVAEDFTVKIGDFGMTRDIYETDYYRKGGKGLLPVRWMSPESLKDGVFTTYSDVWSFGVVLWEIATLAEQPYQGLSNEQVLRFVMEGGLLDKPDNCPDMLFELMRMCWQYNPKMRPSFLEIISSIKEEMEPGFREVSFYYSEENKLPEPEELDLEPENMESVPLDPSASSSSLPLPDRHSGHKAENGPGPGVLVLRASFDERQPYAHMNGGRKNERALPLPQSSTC
# Procedure: as §1
# [23] = molecular target: ROCK2 (Homo sapiens, UniProt O75116)
# Procedure: as §1
# [24] = molecular target: RET (Homo sapiens, UniProt P07949)
# Procedure: as §1
# [25] = binding competition, % of control, read-out: RU-301 %Ctrl @ 10000nM
# [26] = read-out: R428 %Ctrl @ 10000nM, binding competition
smiles,measurement,setting,value
Cc1cc(CSc2ccccc2C(=O)NCCNc2ccc(C(F)(F)F)cc2[N+](=O)[O-])on1 [RU-301],remaining binding at 10 µM,[1]; [25],88%
same,remaining binding at 10 µM,[2]; [25],89%
same,remaining binding at 10 µM,[3]; [25],100%
same,remaining binding at 10 µM,[4]; [25],99%
same,remaining binding at 10 µM,[5]; [25],83%
same,remaining binding at 10 µM,[6]; [25],88%
same,remaining binding at 10 µM,[7]; [25],100%
same,remaining binding at 10 µM,[8]; [25],86%
same,remaining binding at 10 µM,[9]; [25],100%
same,remaining binding at 10 µM,[10]; [25],87%
same,remaining binding at 10 µM,[11]; [25],94%
same,remaining binding at 10 µM,[12]; [25],100%
same,remaining binding at 10 µM,[13]; [25],100%
same,remaining binding at 10 µM,[14]; [25],97%
same,remaining binding at 10 µM,[15]; [25],74%
same,remaining binding at 10 µM,[16]; [25],75%
same,remaining binding at 10 µM,[17]; [25],100%
same,remaining binding at 10 µM,[18]; [25],100%
same,remaining binding at 10 µM,[19]; [25],78%
same,remaining binding at 10 µM,[20]; [25],98%
same,remaining binding at 10 µM,[21]; [25],91%
same,remaining binding at 10 µM,[22]; [25],98%
same,remaining binding at 10 µM,[23]; [25],75%
same,remaining binding at 10 µM,[24]; [25],97%
Nc1nc(Nc2ccc3c(c2)CC[C@@H](N2CCCC2)CC3)nn1-c1cc2c(nn1)-c1ccccc1CCC2 [R428],percent of control binding at 10 µM,[1]; [26],100%
same,percent of control binding at 10 µM,[2]; [26],0.15%
same,percent of control binding at 10 µM,[3]; [26],60%
same,percent of control binding at 10 µM,[4]; [26],1.4%
same,percent of control binding at 10 µM,[5]; [26],15%
same,percent of control binding at 10 µM,[6]; [26],9.4%
same,percent of control binding at 10 µM,[7]; [26],87%
same,percent of control binding at 10 µM,[8]; [26],0.5%
same,percent of control binding at 10 µM,[9]; [26],100%
same,percent of control binding at 10 µM,[10]; [26],49%
same,percent of control binding at 10 µM,[11]; [26],46%
same,percent of control binding at 10 µM,[12]; [26],100%
same,percent of control binding at 10 µM,[13]; [26],71%
same,percent of control binding at 10 µM,[14]; [26],74%
same,percent of control binding at 10 µM,[15]; [26],2.1%
same,percent of control binding at 10 µM,[16]; [26],3%
same,percent of control binding at 10 µM,[17]; [26],0.65%
same,percent of control binding at 10 µM,[18]; [26],2.2%
same,percent of control binding at 10 µM,[19]; [26],19%
same,percent of control binding at 10 µM,[20]; [26],74%
same,percent of control binding at 10 µM,[21]; [26],30%
same,percent of control binding at 10 µM,[22]; [26],99%
same,percent of control binding at 10 µM,[23]; [26],3%
same,percent of control binding at 10 µM,[24]; [26],0%
